The test system of test [1] is rabbit PRP (plasma rich in platelets). The experiment in a line: Platelet aggregation on rabbit PRP, agonist collagen. Format: cell-based. The note with it: Oryctolagus cuniculus. As for the experimental part:
(§1) Male New Zealand rabbits, 2000-3000 g [Stefano Morini, S. Polo D'Enza, RE Italy], quarantined for 5 days prior beginning of the trial (anti-piatelet effect). Male Wistar rats, 250±20 g [IFFA CREDO, Italy] randomized, divided into groups of 5 animals each and fasted for 16 h prior to treatment (thromboanemia determination).
(§2) Blood was intracardially collected from rabbits, using as anticoagulant sodium citrate at a final concentration of 0.38% and centrifuged for 15′ at 150 g in order to obtain a plasma rich in platelets (PRP). PRP was used at a concentration of 3.5×10^8 platelet/ml. MED 15 and reference products were incubated with the PRP for 3′ at 37 C° prior to addition of the aggregating agent. Platelet aggregation induced by arachidonic acid, sodium salt [TAC (threshold aggregation concentration): 140 μm] and collagen (TAC: 28 μg/ml) was measured using an aggregometer (Chronolog model 500) according to the Born's method ([…]. Nature 1962; 194: 927-929) and was expressed as inhibition percentage with respect to the agonist mean response.

For test [2] the test system is unchanged. The experiment in a line: Platelet aggregation on rabbit PRP, agonist arachidonic acid sodium salt. In kind it is cell-based. The note with it: Oryctolagus cuniculus. As for the experimental part: as §1, §2
Test [3] concerns TXB2 plasma levels. The experiment in a line: TXB2 (thromboxane) determination in rat. In kind it is in vivo. The note with it: for TXB2 ng/ml ± S.E. / inhibition at 100 mg/kg: 100 mg/kg per os, blood 3 h after treatment; for TXB2 ng/ml ± S.E.: controls 174.1 ± 42.6; for inhibition at 100 mg/kg: po, vs controls; for % inhibition of TXB2 plasma levels: kinetics. As for the experimental part: as §1
The animals received per OS 100 mg/kg (1.5 ml/rat) MED 15 and (acetyl salicylic acid) suspended in 1% CMC, and controls received the vehicle only. […] Tromboxane content was determined in the serum thus obtained using a RIA kit [Amersham TRK780]. The results obtained can be evaluated with reference to the following tables and figures.

The subject of test [4] is TNB-induced colitis. The experiment in a line: TNB-induced colitis. To be noted: MED 15 100 mg/Kg per os T=0, +1, +2, +3 days. In kind it is in vivo, rat. How it is done:
(§3) Male Wistar rats, 180±20g quarantined for at least 5days and fasted for 18 h prior to the beginning of the trial (on a grid to avoid coprophagy) with free access to water.
Colitis was induced in animals by administration of 15 mg TNB (trinitrobenzosulphonic acid) in 0.25 ml of 30% ethanol in the colon lumen and with an 8 cm cannula at T=0.
MED 15 (100 mg/Kg per os in 1% CMC) was administered to:
5 h after the last administration the animals were killed by cervical dislocation, the colon (8 cm distal portion) removed for damage evaluation.
(§4) Considered parameters are:
myeloperoxidase (MPO), neutrophil indicator;
(§5) data were evaluated by Student's t-test

Test [5] concerns indomethacin-induced small intestine inflammation. The experiment in a line: Indomethacin-induced small intestine inflammation. In kind it is in vivo, rat. As for the experimental part: as §3
The animals were treated with indomethacin (7.5 mg/Kg by subcutaneous administration in NaHCO3 5%) at T=0 and T=+1 day.
MED 15 (100 mg/Kg per os in 1% CMC) was administered according to two different treatments:
Scheme no. 1: T=0, +1 and 2 days
Scheme no. 2: T=0, +1, +2, +5, +6, +7 days
24 h after the last administration the animals were killed by cervical dislocation; the small intestine (from the pylorus to the ileocecal valve), removed and opened lengthwise, was washed in physiological solution at pH 7.4 for damage evaluation.
Considered parameters are: […]
myeloperoxidase (MPO), neutrophil indicator; malondialdehyde (MDA), oxidative process indicator. data were evaluated by Student's t-test

For test [6], the system named is acetic acid-induced colitis. The experiment in a line: Acetic acid-induced colitis. The note with it: MED 15 100 mg/Kg per os at T-48 h, -24 h, -2 h; acetic acid controls 949±66. Format: in vivo, rat. As for the experimental part:
as §3
Colitis was induced in animals by administration of 5% acetic acid (1.5 ml/rat) in the distal colon lumen with an 8 cm cannula at T=0.
MED 15 (100 mg/Kg per os) was administered at T−48 h, −24 h and −2 h.
24 h after colitis induction, animals were killed by cervical dislocation and the colon removed and washed in physiological solution at pH 7.4, was examined for damage evaluation.
as §4
malondialdehyde (MDA), oxidative process indicator.
as §5

For test [7], the system named is human ulcerative colitis. The experiment in a line: Double-blind, controlled, randomized clinical trial in ulcerative colitis. Format: in vivo. To be noted: MED 15 1200 mg/day plus 5-aminosalicylic acid, 60 days, vs 5-ASA plus placebo. As for the experimental part:
A double-blind, controlled, randomized study was carried out in patients affected by two simultaneous pathologies: ulcerative colitis and osteoarticolar disease (osteoarthritis, rheumatoid arthritis, extra-articular rheumatism).
20 patients were divided into 2 homogeneous groups of 10 patients each (Group A and Group B):
Group A was treated with 5-aminosalicylic acid 1200 mg/day and placebo
Group B was treated with 5-aminosalicylic acid […] and MED 15 1200 mg/day
The following clinical evaluations were performed at the beginning of the study (T0), T15, T30, and T60 (end of therapy):
1) endoscopic examination of intestinal mucosa
2) annotation of symptomatology referred by the patients.
The severity of these parameters was expressed by a score as follows: […]

Each structure is given as a SMILES string.

What is called inhibition is the drop in the measured response relative to a control, in per cent.

`CC(=O)Oc1ccccc1C(=O)O` [ASA, acetylsalicylic acid, reference compound] returned an inhibition at 12.5 µM in test [1] (12.5 μM) of 18.4 ± 10.5%. Further, the figures for the inhibition at 25 µM in test [1] (25.0 μM) and in test [2] (25.0 μM) were 33.7 ± 2.1% and 0%, respectively. Also, the inhibition at 50 µM in test [1] (50.0 μM) stood at 70.4 ± 14.9%; in test [2] (50.0 μM), 83.3 ± 16.7%. Moreover, the inhibition at 100 µM in test [1] (100.0 μM) and in test [2] (100.0 μM) was 100% each time. The “TXB2 ng/ml ± S.E.” value in test [3] is 2.9 ± 1.1 ng/mL. In test [3], the inhibition at 100 mg/kg was 98.3%.
In the case of `COc1ccccc1OC(=O)CNC(=O)Cc1ccc(C(=O)c2ccc(C)cc2)n1C` [MED 15, 2-metoxyphenyl-1-methyl-5-p-methylbenzoyl-pirrol-2-acetamido acetate], in test [4], the “colon walls weight, change compared to TNB control” value was −28.6%; the “myeloperoxidase levels, change compared to TNB control” value is given as −33.1%; the “score, change compared to TNB control” value is −35.2%. In addition, the “reduction in the number of ulcers” value in test [5] (scheme no. 1 (acute phase, T=0, +1 and 2 days), MED 15 100 mg/Kg per os, vs indomethacin controls) was 44.3%. In test [5] (scheme no. 1, MED 15 100 mg/Kg per os, indomethacin controls 7.62±1.84), this molecule registered a score of 4.63±2.73. Further, the “tissutal levels of MPO” value in test [5] (scheme no. 1, after MED 15 treatment 100 mg/Kg per os) is “diminution”. Further, in test [5] (scheme no. 2 (prolonged), MED 15 100 mg/Kg per os), the “decrease of score value” came to 58.4%. Besides, the “decrease in number of ulcers” value in test [5] (scheme no. 2 (prolonged, T=0, +1, +2, +5, +6, +7 days), MED 15 100 mg/Kg per os) is recorded as 86.1%. In test [6], this molecule came in with a malondialdehyde levels of 719 ± 60 nmol/g. In test [1] (0.05 μM), this molecule displayed an inhibition at 0.05 µM of 0%. The same molecule gave an inhibition at 0.1 µM in test [1] (0.10 μM) of 34.3%. Testing at 0.39 µM in test [1] (0.39 μM) gave an inhibition of 100%. Further, in test [7], the “effectiveness in ulcerative colitis (mucosal inflammation and symptomatology scores)” value is given as “more effective than 5-ASA”; the healing time entry is listed as “dramatically reduced compared to 5-ASA”. Further, the inhibition at 0.5 µM in test [2] (0.5 μM) was determined as 7.7%. The inhibition at 1.25 µM in test [2] (1.25 μM) was 100%. In test [2] (2.5 μM), the inhibition at 2.5 µM came to 100%. Moreover, the inhibition at 5 µM in test [2] (5.0 μM) came out at 100%. In test [3], the “duration of the effect on TXB2 plasma levels” value worked out at 24 h, the “TXB2 ng/ml ± S.E.” value worked out at 14.3 ± 1.3 ng/mL and the inhibition at 100 mg/kg came out at 91.8%. Moreover, the “% inhibition of TXB2 plasma levels” value in test [3] (0.75 h) came to 93.2%. Also, in test [3] (1.5 h), the “% inhibition of TXB2 plasma levels” value turned out to be 90.8%. In test [3] (3.0 h), the “% inhibition of TXB2 plasma levels” value is 91.4%. The “% inhibition of TXB2 plasma levels” value in test [3] (24.0 h) is on record as 49.2%.
